Experimental data: patent US4591551A, “Radioenzymatic method for assaying normetanephrine and octopamine” (University of Southern California, priority 1984, dated 1986)

How the values were obtained:
[1] = target: T1, phenylethanolamine-N-methyl transferase (Bos taurus, UniProt P10938); assay: Substrate specificity: cross reactivities of catecholamines and congeners in the radioenzymatic assay for plasma normetanephrine; type: biochemical, bovine; details: for % / Counts per Minute, Sample: 500 pg of amine added; for %: sample counts; for Counts per Minute, Sample: without normetanephrine internal standard, metanephrine band after TLC; for Percentage Interference: 500 pg of amine in assay for plasma normetanephrine; for Counts per Minute, Normetanephrine Standard: 500 pg of amine plus 250 pg of normetanephrine; for Normetanephrine: apparent normetanephrine from 500 pg of amine, calculated using 250 pg in the formula
T1 construct: PNMT was partially purified from bovine adrenal medulla; from tissue; host or cells: bovine adrenal medulla
T1 sequence (P10938 1-283): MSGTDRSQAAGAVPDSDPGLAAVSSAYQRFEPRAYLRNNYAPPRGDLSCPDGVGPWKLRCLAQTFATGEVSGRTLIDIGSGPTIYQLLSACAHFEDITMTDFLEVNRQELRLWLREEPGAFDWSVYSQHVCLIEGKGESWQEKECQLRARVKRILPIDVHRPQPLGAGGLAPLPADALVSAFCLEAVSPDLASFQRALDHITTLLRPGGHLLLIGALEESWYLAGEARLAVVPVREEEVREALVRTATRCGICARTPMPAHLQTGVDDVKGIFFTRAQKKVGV
Procedure: (§1) PNMT was partially purified from bovine adrenal medulla according to the method of Henry et al, supra. In accordance with that procedure, thirty-three grams of medullary tissue are dissected from 15 fresh bovine adrenals and homogenized in 280 ml of 1.19 percent KCl solution. The homogenate is centrifuged at 40,000 g for one hour and the supernatant is filtered and recentrifuged at 100,000 g for one hour. To 250 ml of the supernatant are added 5 ml of 0.05M sodium phosphate buffer, pH 7.5 and 44 gm of solid ammonium sulfate. Another 19.8 gm of ammonium sulfate per 100 ml are added. The supernatant is discarded and the precipitate resuspended in 100 ml of 55 percent saturated ammonium sulfate--0.0125M sodium phosphate. The solution is recentrifuged and for each 100 ml of supernatant, 17 gm of ammonium sulfate are added. After centrifugation, the precipitate is resuspended in 50 ml of 0.005M tris, pH 7.4, containing 0.1 mM dithiothreitol and dialyzed in four liters of the buffer with four changes in a 16 hour period. The dialyzed enzyme is then centrifuged at 40,000 g for 10 minutes and frozen in small aliquots.
Duplicate aliquots (20-50 microliters) of the processed specimens were transferred to disposable culture tubes (13×100 mm); 10 ul of deionized water was added to one and the same volume of normetanephrine standard solution (100 pm) was added to the other. Two tubes of 50 microliters of 0.001N NCl were used for blanks instead of plasma for each assay run. The enzymatic reaction was initiated by the addition of a mixture of 10 ul each of 0.5M tris-HCl with 12.5 mM EDTA (pH 10.0), diluted tritiated […] (SAM-H^3 at 1.25 microCurie) and phenylethanolamine-N-methyl transferase prepared as above. The pH of the incubation mixture was 9.2. The incubation was carried out for sixty minutes at 37° C. and terminated by cooling in an ice bath and the addition of 100 ul of 0.5M borate buffer (pH 10.0) containing 5 micromole of metanephrine to facilitate the location of chromotography bands.
Radioactive products were extracted into 3 ml of toluene isoamyl-alcohol mixture (3:2) by agitation on a vortex mixer. The organic layer was separated by centrifugation, transferred to another set of tubes after quick freezing of the aqueous layer in a dry ice acetone bath and subsequently washed by 50 microliter of 0.5M borate buffer (pH 10.0) with similar procedures. Then the organic layer was transferred to a 15 ml centrifuge tube and the N-methylated products were back-extracted to 130 microliter of 0.1N acetic acid. After centrifugation, the organic layer was aspirated off and 100 microliter of the acetic acid phase was spotted on a silica gel plate with a multiple spotter. Thin layer chromatography was carried out in the chamber using as a developing solvent a mixture of tertiary amyl-alcohol, methylamine (40%), benzene (6:3:2, total 73.5 ml) for ninety minutes, in accordance with the procedure of Peuler and Johnson, supra. Then the plate was dried immediately. The metanephrine spot was marked under ultraviolet light, scraped off with a knife and transferred to a plastic vial containing 1 ml of 1N NH4 OH. Ten mls of ScintiVerse (obtained from the Fisher Scientific Co.) was added and the vial was left to stand for at least one hour prior to counting in a liquid scintillation counter. The plasma normetanephrine concentration was calculated from the radioactivity according to the formula given above.
Assays were conducted as in Example I using the solvent system of that example but in which the sample contained 250 pg of normetanephrine and in which there was added to the incubation mixture in individual tubes 10 microliters of the respective reagent listed in Table II.

[2] = target: T1, phenylethanolamine-N-methyl transferase; assay: Radioenzymatic assay of octopamine in urine (counted as synephrine); type: biochemical, bovine
Procedure: The procedure of Examples I and II can be repeated but with the addition of 100 pg of octopamine in place of the 100 pg of normetanephrine as an internal standard, and by the addition of 5 micromole of unlabeled synephrine in place of the 5 micromole of metanephrine to facilitate chromatography band location. The pH of the incubation mixture is 9.3. The solvent system used is chloroform-ethanol-methylamine (40%) 16:3:2. In this case, synephrine bands are scraped into the scintillation vial and their counts per minute determined to yield the amount of octopamine, as synephrine.
A linear relationship was shown when octopamine was added either to urine or to water at 3-500 pg. Similarly, a linear relation was observed when both the synephrine and dimethyloctopamine were counted together after thin layer chromatography. These findings indicate that methylation of synephrine is proportioned to the added amount of octopamine and therefore validates the measurement of octopamine with this assay. When the synephrine was recovered from thin layer chromatography, it yielded a lower blank and therefore increased sensitivity. […] An additional wash with borate buffer (pH 10) and the use of chloroform-ethanol-methylamine as developing solvents further reduced the blank to a mean value of 56±7 cpm (N=13). Two and one-half octopamine in urine yields about 120-140 cpm. […]

[3] = type: physicochemical
Procedure: Blood specimens were collected into commercial vactainer tubes containing 15 milligrams EDTA for 10 ml of blood and placed on ice immediately. After centrifugation at 4° C., exactly 1 ml of plasma was transferred to a 10 ml test tube and kept in the freezer at -20° C. until the assay was performed. In this condition, plasma normetanephrine is stable for at least 2 months.

PNMT = assay: Isomer preference of normetanephrine as substrate for PNMT; type: biochemical, bovine; details: vs dl-normetanephrine
Procedure: as §1
1-Normetanephrine is the preferred isomer as a substrate for PNMT and yielded about 1.5 times the activity of dl-normetanephrine. Thus, 1-normetanephrine should be used for calibration.

SMILES	% [1] [%]	Counts per Minute, Sample [1] [Counts per Minute]	Percentage Interference [1] [%]	Counts per Minute, Normetanephrine Standard [1] [Counts per Minute]	Normetanephrine [1] [pg]	counts yielded by octopamine in urine ([2]; One hundred pg of octopamine in urine)	counts yielded by octopamine in urine ([2]; Two and one-half octopamine in urine)	plasma normetanephrine is stable [3]	activity as substrate for PNMT relative to dl-normetanephrine (PNMT)
NCC(O)c1ccc(O)cc1 (stereo not drawn) [Octopamine, octopamine]	11.8	726	4.9	7261	24.5	2,500-3,000 cpm	120-140 cpm	–	–
COc1cc(C(O)CN)ccc1O (stereo not drawn) [Normetanephrine, normetanephrine]	–	–	–	–	–	–	–	at least 2 months	–
NC[C@H](O)c1ccc(O)c(O)c1 [Norepinephrine, norepinephrine]	1.6	101	0.1	6020	0.6	–	–	–	–
NCCc1ccc(O)c(O)c1 [Dopamine, dopamine]	1.3	80	0	6130	0	–	–	–	–
CNCC(O)c1ccc(O)c(OC)c1 (stereo not drawn) [Metanephrine, metanephrine]	2.9	180	0.7	6363	3.8	–	–	–	–
CNC[C@H](O)c1ccc(O)c(O)c1 [Epinephrine, epinephrine]	1.3	80	0	6124	0	–	–	–	–
NCCc1ccc(O)cc1 [Tyramine, tyramine]	1.3	81	0	6090	0	–	–	–	–
CNCC(O)c1ccc(O)cc1 (stereo not drawn) [Synephrine, synephrine]	4.2	262	1.5	6160	7.5	–	–	–	–
COc1cc([C@@H](O)CN)ccc1O [1-Normetanephrine]	–	–	–	–	–	–	–	–	about 1.5 times
